This test deals with T1, ERα (Homo sapiens, UniProt P03372).
T1 construct: host or cells: MCF7
T1 sequence (P03372 1-595): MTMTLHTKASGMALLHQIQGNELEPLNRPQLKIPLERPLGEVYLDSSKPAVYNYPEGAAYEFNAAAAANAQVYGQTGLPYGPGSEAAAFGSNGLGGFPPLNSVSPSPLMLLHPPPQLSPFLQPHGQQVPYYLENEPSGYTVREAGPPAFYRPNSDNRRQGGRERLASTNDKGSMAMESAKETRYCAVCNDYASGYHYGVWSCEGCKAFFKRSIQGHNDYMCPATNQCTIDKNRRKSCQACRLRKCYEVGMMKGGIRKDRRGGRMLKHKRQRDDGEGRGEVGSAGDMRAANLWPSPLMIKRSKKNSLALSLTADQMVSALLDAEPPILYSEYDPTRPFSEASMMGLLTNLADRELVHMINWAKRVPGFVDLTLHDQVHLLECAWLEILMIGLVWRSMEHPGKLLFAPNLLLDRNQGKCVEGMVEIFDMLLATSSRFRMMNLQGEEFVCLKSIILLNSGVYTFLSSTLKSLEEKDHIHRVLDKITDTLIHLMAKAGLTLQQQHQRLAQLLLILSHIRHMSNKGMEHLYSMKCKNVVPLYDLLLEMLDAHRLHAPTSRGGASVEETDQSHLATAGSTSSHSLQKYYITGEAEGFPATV
Nature of the test: Estrogen receptor degradation activity: breast cancer cell ERα in cell western assay (MCF7 cells). Format: cell-based. The note with it: for % Degradation At 0.3 μM: 4 hours, relative to fulvestrant 0.1 μM positive control; for DC50: 4 hours post compound addition, concentration which degrades 50% of the estrogen receptor, read-out: Degradation IC50. Put shortly: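 In-cell western readout: ERα immunofluorescence (Alexa 488) normalised to DNA signal (Syto-64) after formalin fixation. Compounds dosed for 4 h on MCF7 cells in stripped-serum, phenol-red-free medium over nine 1:5 steps, 0.3 to […] final; fulvestrant 0.1 μM control. IC50 in nM for 50% ERα degradation.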

The structures appear in SMILES notation.

For `O=C([O-])c1ccc2c(c1)CCCC(c1ccc(F)cc1F)=C2c1ccc(C=C2CN(CCCF)C2)cc1F.[Na+]` [Example 142, Sodium 8-(2,4-difluorophenyl)-9-(2-fluoro-4-((1-(3-fluoropropyl)azetidin-3-ylidene)methyl)phenyl)-6,7-dihydro-5H-benzo[7]annulene-3-carboxylate], the “% Degradation At 0.3 μM” value amounted to 96% and the DC50 turned out to be 0.3 nM.

Turning to `O=C(O)c1ccc2c(c1)CCCC(c1cc(Cl)cc(C(F)(F)F)c1)=C2c1ccc(C=C2CN(CCCF)C2)cc1` [Example 143, 8-(3-chloro-5-(trifluoromethyl)phenyl)-9-(4-((1-(3-fluoropropyl)azetidin-3-ylidene)methyl)phenyl)-6,7-dihydro-5H-benzo[7]annulene-3-carboxylic acid], the “% Degradation At 0.3 μM” value is 81% and the DC50 amounted to 3.7 nM.

For the compound `Cc1ccc(C2=C(c3ccc(C=C4CN(CCCF)C4)cc3)c3ccc(C(=O)O)cc3CCC2)cc1C(F)(F)F` [Example 144, 9-(4-((1-(3-fluoropropyl)azetidin-3-ylidene)methyl)phenyl)-8-(4-methyl-3-(trifluoromethyl)phenyl)-6,7-dihydro-5H-benzo[7]annulene-3-carboxylic acid], the “% Degradation At 0.3 μM” value was found to be 90% and the DC50 was 0.4 nM.

Consider `Cc1cc(C2=C(c3ccc(C=C4CN(CCCF)C4)cc3)c3ccc(C(=O)O)cc3CCC2)cc(C(F)(F)F)c1` [Example 145, 9-(4-((1-(3-fluoropropyl)azetidin-3-ylidene)methyl)phenyl)-8-(3-methyl-5-(trifluoromethyl)phenyl)-6,7-dihydro-5H-benzo[7]annulene-3-carboxylic acid], for which the “% Degradation At 0.3 μM” value was determined as 85% and the DC50 worked out at 4.3 nM.

`O=C(O)c1ccc2c(c1)CCCC(c1ccc(C(F)(F)F)c(C(F)(F)F)c1)=C2c1ccc(C=C2CN(CCCF)C2)cc1` [Example 146, 8-(3,4-bis(trifluoromethyl)phenyl)-9-(4-((1-(3-fluoropropyl)azetidin-3-ylidene)methyl)phenyl)-6,7-dihydro-5H-benzo[7]annulene-3-carboxylic acid]: the “% Degradation At 0.3 μM” value was 88% and the DC50 worked out at 1.4 nM.

As for `O=C(O)c1ccc2c(c1)CCCC(c1cccc(C(F)(F)F)c1Cl)=C2c1ccc(C=C2CN(CCCF)C2)cc1` [Example 147, 8-(2-chloro-3-(trifluoromethyl)phenyl)-9-(4-((1-(3-fluoropropyl)azetidin-3-ylidene)methyl)phenyl)-6,7-dihydro-5H-benzo[7]annulene-3-carboxylic acid], the “% Degradation At 0.3 μM” value is listed as 90% and the DC50 came out at 0.3 nM.

Take `COc1ccc(C2=C(c3ccc(C=C4CN(CCCF)C4)cc3)c3ccc(C(=O)O)cc3CCC2)cc1C(F)(F)F` [Example 148, 9-(4-((1-(3-fluoropropyl)azetidin-3-ylidene)methyl)phenyl)-8-(4-methoxy-3-(trifluoromethyl)phenyl)-6,7-dihydro-5H-benzo[7]annulene-3-carboxylic acid]: the “% Degradation At 0.3 μM” value is 90% and the DC50 was found to be 1.2 nM.

As to `CCOc1ccc(C2=C(c3ccc(C=C4CN(CCCF)C4)cc3)c3ccc(C(=O)O)cc3CCC2)cc1C(F)(F)F` [Example 149, 8-(4-ethoxy-3-(trifluoromethyl)phenyl)-9-(4-((1-(3-fluoropropyl)azetidin-3-ylidene)methyl)phenyl)-6,7-dihydro-5H-benzo[7]annulene-3-carboxylic acid], the “% Degradation At 0.3 μM” value is 87% and the DC50 came out at 0.4 nM.

For the compound `COc1cc(C2=C(c3ccc(C=C4CN(CCCF)C4)cc3)c3ccc(C(=O)O)cc3CCC2)cc(C(F)(F)F)c1` [Example 150], the “% Degradation At 0.3 μM” value turned out to be 88% and the DC50 was determined as 1.7 nM.

In the case of `O=C(O)c1ccc2c(c1)CCCC(c1cc(C(F)(F)F)ccc1C(F)(F)F)=C2c1ccc(C=C2CN(CCCF)C2)cc1` [Example 151, 8-(2,5-bis(trifluoromethyl)phenyl)-9-(4-((1-(3-fluoropropyl)azetidin-3-ylidene)methyl)phenyl)-6,7-dihydro-5H-benzo[7]annulene-3-carboxylic acid], the “% Degradation At 0.3 μM” value is on record as 90% and the DC50 worked out at 0.2 nM.

As to `Cc1cc(F)ccc1C1=C(c2ccc(C=C3CN(CCCF)C3)c(F)c2F)c2ccc(C(=O)O)cc2CCC1` [Example 152, 9-(2,3-difluoro-4-((1-(3-fluoropropyl)azetidin-3-ylidene)methyl)phenyl)-8-(4-fluoro-2-methylphenyl)-6,7-dihydro-5H-benzo[7]annulene-3-carboxylic acid], the “% Degradation At 0.3 μM” value was determined as 93% and the DC50 turned out to be 0.2 nM.

For the compound `O=C(O)c1ccc2c(c1)CCCC(c1cc(F)ccc1C(F)(F)F)=C2c1ccc(C=C2CN(CCCF)C2)cc1` [Example 153, 8-(5-fluoro-2-(trifluoromethyl)phenyl)-9-(4-((1-(3-fluoropropyl)azetidin-3-ylidene)methyl)phenyl)-6,7-dihydro-5H-benzo[7]annulene-3-carboxylic acid], the “% Degradation At 0.3 μM” value is 92% and the DC50 was 0.5 nM.

As to `O=C(O)c1ccc2c(c1)CCCC(c1ccc(F)c(C(F)(F)F)c1)=C2c1ccc(C=C2CN(CCCF)C2)cc1` [Example 154, 8-(4-fluoro-3-(trifluoromethyl)phenyl)-9-(4-((1-(3-fluoropropyl)azetidin-3-ylidene)methyl)phenyl)-6,7-dihydro-5H-benzo[7]annulene-3-carboxylic acid], the “% Degradation At 0.3 μM” value is 92% and the DC50 came to 0.4 nM.

For `O=C(O)c1ccc2c(c1)CCCC(c1cc(F)cc(C(F)(F)F)c1)=C2c1ccc(C=C2CN(CCCF)C2)cc1` [Example 155, 8-(3-fluoro-5-(trifluoromethyl)phenyl)-9-(4-((1-(3-fluoropropyl)azetidin-3-ylidene)methyl)phenyl)-6,7-dihydro-5H-benzo[7]annulene-3-carboxylic acid], the “% Degradation At 0.3 μM” value is given as 91% and the DC50 worked out at 0.3 nM.

As for `COc1cc(C2=C(c3ccc(C=C4CN(CCCF)C4)cc3)c3ccc(C(=O)O)cc3CCC2)c(F)cn1` [Example 156, 8-(5-fluoro-2-methoxypyridin-4-yl)-9-(4-((1-(3-fluoropropyl)azetidin-3-ylidene)methyl)phenyl)-6,7-dihydro-5H-benzo[7]annulene-3-carboxylic acid], the “% Degradation At 0.3 μM” value worked out at 89% and the DC50 worked out at 0.6 nM.

For the compound `Cc1cc(F)ccc1C1=C(c2ccc(C=C3CN(CCCF)C3)c(C(F)(F)F)c2)c2ccc(C(=O)O)cc2CCC1` [Example 157, 8-(4-fluoro-2-methylphenyl)-9-(4-((1-(3-fluoropropyl)azetidin-3-ylidene)methyl)-3-(trifluoromethyl)phenyl)-6,7-dihydro-5H-benzo[7]annulene-3-carboxylic acid], the “% Degradation At 0.3 μM” value was 88% and the DC50 is 3.1 nM.

As to `O=C(O)c1ccc2c(c1)CCCC(c1ccc(Cl)cc1Cl)=C2c1ncc(C=C2CN(CCCF)C2)cc1F` [Example 158, 8-(2,4-Dichlorophenyl)-9-(3-fluoro-5-((1-(3-fluoropropyl)azetidin-3-ylidene)methyl)pyridin-2-yl)-6,7-dihydro-5H-benzo[7]annulene-3-carboxylic acid], the “% Degradation At 0.3 μM” value amounted to 94% and the DC50 was 0.4 nM.

With `O=C(O)c1ccc2c(c1)CCCC(c1ccc(Cl)cc1Cl)=C2c1ccc(C=C2CN(CCCF)C2)cn1` [Example 159, 8-(2,4-Dichlorophenyl)-9-(5-((1-(3-fluoropropyl)azetidin-3-ylidene)methyl)pyridin-2-yl)-6,7-dihydro-5H-benzo[7]annulene-3-carboxylic acid], the “% Degradation At 0.3 μM” value came to 97% and the DC50 worked out at 20.4 nM.

On to `O=C(O)c1ccc2c(c1)CCCC(c1c(F)ccc3c1CCC3)=C2c1ccc(C=C2CN(CCC(F)F)C2)cc1` [Example 160, 9-(4-((1-(3,3-difluoropropyl)azetidin-3-ylidene)methyl)phenyl)-8-(5-fluoro-2,3-dihydro-1H-inden-4-yl)-6,7-dihydro-5H-benzo[7]annulene-3-carboxylic acid], for which the “% Degradation At 0.3 μM” value was 93% and the DC50 was 0.6 nM.

For `O=C(O)c1ccc2c(c1)CCCC(c1ccc3c(c1F)CCC3)=C2c1ccc(C=C2CN(CCC(F)F)C2)cc1` [Example 161, 9-(4-((1-(3,3-difluoropropyl)azetidin-3-ylidene)methyl)phenyl)-8-(4-fluoro-2,3-dihydro-1H-inden-5-yl)-6,7-dihydro-5H-benzo[7]annulene-3-carboxylic acid], the “% Degradation At 0.3 μM” value came out at 92% and the DC50 turned out to be 1.2 nM.

Consider `O=C(O)c1ccc2c(c1)CCCC(c1cc(F)cc3c1CCC3)=C2c1ccc(C=C2CN(CCC(F)F)C2)cc1` [Example 162, 9-(4-((1-(3,3-difluoropropyl)azetidin-3-ylidene)methyl)phenyl)-8-(6-fluoro-2,3-dihydro-1H-inden-4-yl)-6,7-dihydro-5H-benzo[7]annulene-3-carboxylic acid], for which the “% Degradation At 0.3 μM” value is given as 93% and the DC50 came to 1.9 nM.

The values above are taken from US12612360B2 (Sanofi, priority 2020, dated 2026).
